What follows are compounds tested against T1, Recombinant human TPH1 (MBP tagged) (Homo sapiens, UniProt P17752) (assay: TPH1 in vitro inhibition assay (kinetic fluorescence)). Conditions: read-out: TPH1 Range (TPH1 inhibition IC50).
T1 construct: cloning full length human TPH1 cDNA in to a bacterial pMAL-c5E expression vector; made in house; host or cells: E. coli BL21 (DE3)
T1 sequence (P17752 1-444): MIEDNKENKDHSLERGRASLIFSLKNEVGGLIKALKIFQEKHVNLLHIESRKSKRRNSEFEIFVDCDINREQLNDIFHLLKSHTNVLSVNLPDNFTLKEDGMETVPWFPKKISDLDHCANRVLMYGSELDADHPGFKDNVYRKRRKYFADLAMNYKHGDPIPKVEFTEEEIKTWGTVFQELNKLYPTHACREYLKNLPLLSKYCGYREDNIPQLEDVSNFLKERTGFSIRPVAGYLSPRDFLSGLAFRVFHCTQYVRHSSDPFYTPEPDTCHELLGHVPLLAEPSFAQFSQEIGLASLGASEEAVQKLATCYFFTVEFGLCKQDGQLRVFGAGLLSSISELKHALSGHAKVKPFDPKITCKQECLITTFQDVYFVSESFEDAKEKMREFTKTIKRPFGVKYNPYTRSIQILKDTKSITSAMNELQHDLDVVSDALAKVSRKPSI
Assay type: biochemical
Summary of the method: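 Final mix: 15 nM MBP-TPH1, 30 μM Trp, 36 μM 6-methyltetrahydropterin, 25 μM ferrous ammonium sulfate, 50 mM MES pH 7.1, 1% DMSO, room temperature.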

With `Cc1cc(-c2cc(Cl)ccc2[C@@H](Oc2cc(N3CCC4(CC3)CN[C@H](C(=O)O)C4)nc(N)n2)C(F)(F)F)ccc1F` [Example 34bd, (S)-8-(2-amino-6-((R)-1-(5-chloro-4′-fluoro-3′-methyl-[1,1′-biphenyl]-2-yl)-2,2,2-trifluoroethoxy)pyrimidin-4-yl)-2,8-diazaspiro[4.5]decane-3-carboxylic acid] as the compound, how does the IC50 read?
Its IC50 is under 50 nM.

How did the IC50 turn out when `Nc1nc(O[C@H](c2ccc(-c3ccc(C(=O)N4CCCC4)cc3)cc2)C(F)(F)F)cc(N2CCC3(CC2)CN[C@H](C(=O)O)C3)n1` [Example 55bp, (S)-8-(2-amino-6-((R)-2,2,2-trifluoro-1-(4′-(pyrrolidine-1-carbonyl)-[1,1′-biphenyl]-4-yl)ethoxy)pyrimidin-4-yl)-2,8-diazaspiro[4.5]decane-3-carboxylic acid] was run?
The IC50 was 50 to 300 nM.

Which IC50 does the source give for `CCOc1ccc(-c2ccc([C@@H](Oc3cc(N4CCC5(CC4)CN[C@H](C(=O)O)C5)nc(N)n3)C(F)(F)F)cc2)cc1F` [Example 55dn, (S)-8-(2-amino-6-((R)-1-(4′-ethoxy-3′-fluoro-[1,1′-biphenyl]-4-yl)-2,2,2-trifluoroethoxy)pyrimidin-4-yl)-2,8-diazaspiro[4.5]decane-3-carboxylic acid] here?
Its IC50 is 50 to 300 nM.

With `Nc1nc(OC(c2c(Br)cccc2Br)C(F)(F)F)cc(N2CCC3(CC2)CN[C@H](C(=O)O)C3)n1` (stereo partly drawn) [Example 47, (3S)-8-(2-Amino-6-(1-(2,6-dibromophenyl)-2,2,2-trifluoroethoxy)pyrimidin-4-yl)-2,8-diazaspiro[4.5]decane-3-carboxylic acid] as the compound, how does the IC50 read?
Its IC50 is 300 to 3000 nM.

`Cc1ccn(-c2ccc(-c3ccc(CCC(=O)O)cc3)cc2[C@@H](Oc2cc(N3CCC4(CC3)CN[C@H](C(=O)O)C4)nc(N)n2)C(F)(F)F)n1` [Example 19k, (S)-8-(2-amino-6-((R)-1-(4′-(2-carboxyethyl)-4-(3-methyl-1H-pyrazol-1-yl)-[1,1′-biphenyl]-3-yl)-2,2,2-trifluoroethoxy)pyrimidin-4-yl)-2,8-diazaspiro[4.5] decane-3-carboxylic acid] was tested. Which IC50 did it give?
Its IC50 is under 50 nM.

`COc1cc(F)ccc1-c1ccc([C@@H](Oc2cc(N3CCC4(CC3)CN[C@H](C(=O)O)C4)nc(N)n2)C(F)(F)F)cc1` [Example 55bl, (S)-8-(2-amino-6-((R)-2,2,2-trifluoro-1-(4′-fluoro-2′-methoxy-[1,1′-biphenyl]-4-yl)ethoxy)pyrimidin-4-yl)-2,8-diazaspiro[4.5]decane-3-carboxylic acid] was tested. Which IC50 did it give?
Its IC50 is 300 to 3000 nM.

How did the IC50 turn out when `Cc1c[nH]c2ccc(-c3ccc([C@@H](Oc4cc(N5CCC6(CC5)CN[C@H](C(=O)O)C6)nc(N)n4)C(F)(F)F)cc3)cc12` [Example 55ac, (S)-8-(2-amino-6-((R)-2,2,2-trifluoro-1-(4-(3-methyl-1H-indol-5-yl)phenyl)ethoxy)pyrimidin-4-yl)-2,8-diazaspiro[4.5]decane-3-carboxylic acid] was run?
Its IC50 is 50 to 300 nM.

With `CCOC(=O)c1ccc(-n2ccc(C)n2)c([C@@H](Oc2cc(N3CCC4(CC3)CN[C@H](C(=O)O)C4)nc(N)n2)C(F)(F)F)c1` [Example 23, (S)-8-(2-Amino-6-((R)-1-(5-(ethoxycarbonyl)-2-(3-methyl-1H-pyrazol-1-yl)phenyl)-2,2,2-trifluoroethoxy)pyrimidin-4-yl)-2,8-diazaspiro[4.5]decane-3-carboxylic acid] as the compound, how does the IC50 read?
Its IC50 is under 50 nM.

For `Nc1nc(O[C@H](c2ccccc2-c2cccc(F)c2)C(F)(F)F)cc(N2CCC3(CC2)CN[C@H](C(=O)O)C3)n1` [Example 42b, (S)-8-(2-amino-6-((R)-2,2,2-trifluoro-1-(3′-fluoro-[1,1′-biphenyl]-2-yl)ethoxy)pyrimidin-4-yl)-2,8-diazaspiro[4.5]decane-3-carboxylic acid], which IC50 is on record?
The IC50 was 50 to 300 nM.

Which IC50 does the source give for `Nc1nc(O[C@H](c2ccc(-c3ccc(O)cc3)cc2)C(F)(F)F)cc(N2CCC3(CC2)CN[C@H](C(=O)O)C3)n1` [Example 55cb, (S)-8-(2-amino-6-((R)-2,2,2-trifluoro-1-(4′-hydroxy-[1,1′-biphenyl]-4-yl)ethoxy)pyrimidin-4-yl)-2,8-diazaspiro[4.5]decane-3-carboxylic acid] here?
Its IC50 is 50 to 300 nM.

How did the IC50 turn out when `Nc1nc(O[C@H](c2ccc(-c3ccc4ccc(=O)oc4c3)cc2)C(F)(F)F)cc(N2CCC3(CC2)CN[C@H](C(=O)O)C3)n1` [Example 55ae, (S)-8-(2-amino-6-((R)-2,2,2-trifluoro-1-(4-(2-oxo-2H-chromen-7-yl)phenyl)ethoxy)pyrimidin-4-yl)-2,8-diazaspiro[4.5]decane-3-carboxylic acid] was run?
Its IC50 is 300 to 3000 nM.

`Nc1nc(NCc2ccccc2N2CCCCC2)nc(N2CCC3(CC2)CNC(C(=O)O)C3)n1` (stereo not shown) [Example 39c, 8-(4-amino-6-((2-(piperidin-1-yl)benzyl)amino)-1,3,5-triazin-2-yl)-2,8-diazaspiro[4.5]decane-3-carboxylic acid] was tested. Which IC50 did it give?
Its IC50 is 3000 to 10000 nM.

How did the IC50 turn out when `COc1ccc(-c2ccc([C@@H](Oc3cc(N4CCC5(CC4)CN[C@H](C(=O)O)C5)nc(C)n3)C(F)(F)F)c(-n3ccc(C)n3)c2)c(OC)c1` [Example 29h, (S)-8-(6-((R)-1-(2′,4′-dimethoxy-3-(3-methyl-1H-pyrazol-1-yl)-[1,1′-biphenyl]-4-yl)-2,2,2-trifluoroethoxy)-2-methylpyrimidin-4-yl)-2,8-diazaspiro[4.5]decane-3-carboxylic acid] was run?
The IC50 was under 50 nM.

With `Cc1ccn(-c2cc(-c3ccc(F)c(Cl)c3)ccc2[C@@H](Oc2cc(N3CCC4(CC3)CN[C@H](C(=O)O)C4)nc(N)n2)C(F)(F)F)n1` [Example 1ar, (S)-8-(2-amino-6-((R)-1-(3′-chloro-4′-fluoro-3-(3-methyl-1H-pyrazol-1-yl)-[1,1′-biphenyl]-4-yl)-2,2,2-trifluoroethoxy)pyrimidin-4-yl)-2,8-diazaspiro[4.5]decane-3-carboxylic acid] as the compound, how does the IC50 read?
The IC50 was 50 to 300 nM.

How did the IC50 turn out when `Nc1nc(O[C@H](c2ccc(-c3ccc(S(N)(=O)=O)cc3)cc2)C(F)(F)F)cc(N2CCC3(CC2)CN[C@H](C(=O)O)C3)n1` [Example 55dj, (S)-8-(2-amino-6-((R)-2,2,2-trifluoro-1-(4′-sulfamoyl-[1,1′-biphenyl]-4-yl)ethoxy)pyrimidin-4-yl)-2,8-diazaspiro[4.5]decane-3-carboxylic acid] was run?
The IC50 was 50 to 300 nM.

For `CCOc1ccc(-c2ccc([C@@H](Oc3cc(N4CCC5(CC4)CN[C@H](C(=O)O)C5)nc(N)n3)C(F)(F)F)c(-n3ccc(C)n3)c2)cc1F` [Example 1bn, (S)-8-(2-amino-6-((R)-1-(4′-ethoxy-3′-fluoro-3-(3-methyl-1H-pyrazol-1-yl)-[1,1′-biphenyl]-4-yl)-2,2,2-trifluoroethoxy)pyrimidin-4-yl)-2,8-diazaspiro[4.5]decane-3-carboxylic acid], which IC50 is on record?
The IC50 was under 50 nM.

For `Cc1ccn(-c2cc(CO)ccc2[C@@H](Oc2cc(N3CCC4(CC3)CN[C@H](C(=O)O)C4)nc(N)n2)C(F)(F)F)n1` [Example 25, (S)-8-(2-Amino-6-((R)-2,2,2-trifluoro-1-(4-(hydroxymethyl)-2-(3-methyl-H-pyrazol-1-yl)phenyl)ethoxy)pyrimidin-4-yl)-2,8-diazaspiro[4.5]decane-3-carboxylic acid], which IC50 is on record?
Its IC50 is under 50 nM.

Which IC50 does the source give for `Cc1ccn(-c2ccc(-c3ccc(CO)c(C)c3)cc2[C@@H](Oc2cc(N3CCC4(CC3)CN[C@H](C(=O)O)C4)nc(N)n2)C(F)(F)F)n1` [Example 19l, (S)-8-(2-amino-6-((R)-2,2,2-trifluoro-1-(4′-(hydroxymethyl)-3′-methyl-4-(3-methyl-1H-pyrazol-1-yl)-[1,1′-biphenyl]-3-yl)ethoxy)pyrimidin-4-yl)-2,8-diazaspiro[4.5]decane-3-carboxylic acid] here?
Its IC50 is under 50 nM.

Which IC50 does the source give for `Cc1ccn(-c2cc(C(=O)OC(C)(C(F)(F)F)C(F)(F)F)ccc2[C@@H](Oc2cc(N3CCC4(CC3)CN[C@H](C(=O)O)C4)nc(N)n2)C(F)(F)F)n1` [Example 18a, (S)-8-(2-amino-6-((R)-2,2,2-trifluoro-1-(4-(((1,1,1,3,3,3-hexafluoro-2-methylpropan-2-yl)oxy)carbonyl)-2-(3-methyl-1H-pyrazol-1-yl)phenyl)ethoxy)pyrimidin-4-yl)-2,8-diazaspiro[4.5]decane-3-carboxylic acid] here?
The IC50 was 50 to 300 nM.

`Cc1ccn(-c2cc(-c3ccc(C(N)=O)cc3)ccc2[C@@H](Oc2cc(N3CCC4(CC3)CN[C@H](C(=O)O)C4)nc(N)n2)C(F)(F)F)n1` [Example 1cg, (S)-8-(2-amino-6-((R)-1-(4′-carbamoyl-3-(3-methyl-1H-pyrazol-1-yl)-[1,1′-biphenyl]-4-yl)-2,2,2-trifluoroethoxy)pyrimidin-4-yl)-2,8-diazaspiro[4.5]decane-3-carboxylic acid] was tested. Which IC50 did it give?
Its IC50 is under 50 nM.

How did the IC50 turn out when `Nc1nc(O[C@H](c2ccc(Cl)cc2-c2cccc3[nH]cnc23)C(F)(F)F)cc(N2CCC3(CC2)CN[C@H](C(=O)O)C3)n1` [Example 34cp, (S)-8-(6-((R)-1-(2-(1H-benzo[d]imidazol-4-yl)-4-chlorophenyl)-2,2,2-trifluoroethoxy)-2-aminopyrimidin-4-yl)-2,8-diazaspiro[4.5]decane-3-carboxylic acid] was run?
Its IC50 is 50 to 300 nM.

For `Cc1cccc(C)c1-c1ccc([C@@H](Oc2cc(N3CCC4(CC3)CN[C@H](C(=O)O)C4)nc(N)n2)C(F)(F)F)cc1` [Example 55cg, (S)-8-(2-amino-6-((R)-1-(2′,6′-dimethyl-[1,1′-biphenyl]-4-yl)-2,2,2-trifluoroethoxy)pyrimidin-4-yl)-2,8-diazaspiro[4.5]decane-3-carboxylic acid], which IC50 is on record?
The IC50 was 300 to 3000 nM.
